# Source: patent publication US20240270821A1, “GIP/GLP1/GCG TRI-RECEPTOR AGONISTS AND USES THEREOF” (priority 2023, published 2024)
# Starred links: 1 amine or outer side, 2 acyl side, 3 side chain; linkers in the order of their positions; H or OH if unused. Non-standard residues stand in square brackets, D forms with d. Residues, ends and D or L forms follow the SMILES beside them. Groups on a side chain read outwards from the residue. *: point of attachment. C18 diacid = O=C(O)CCCCCCCCCCCCCCCCC(=O)*; αMePhe(2-F) = C[C@](N)(Cc1ccccc1F)C(=O)O; γGlu = O=C(O)[C@H](CCC(=O)[*:2])N[*:1]; 4Pal = N[C@@H](Cc1ccncc1)C(=O)O; Aad = N[C@@H](CCCC(=O)O)C(=O)O; Orn = NCCC[C@H](N)C(=O)O; AEEA = NCCOCCOCC(=O)O; Aib = CC(C)(N)C(=O)O
# What was measured:
# Type in all cases: cell-based
# hGcgR = hGcgR (Homo sapiens, UniProt P47871); test: Functional cAMP activation in the presence of 0.1% casein (no HSA); details: read-out: Relative cAMP EC50, hGcgR;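 also: intracellular cAMP rise after 30 min at 37 °C, read by HTRF against a cAMP standard curve, scaled from buffer only (0%) to maximal control ligand response (100%)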
# hGLP-1R [1] = molecular target: T1, hGLP-1R (Homo sapiens, UniProt P43220); test: as above; details: read-out: Relative cAMP EC50, hGLP-1R;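 also: intracellular cAMP rise after 30 min at 37 °C read by HTRF, normalized between buffer only (0%) and maximal control ligand (100%), four-parameter variable-slope fit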
# hGIPR [2] = molecular target: T2, hGIPR (Homo sapiens, UniProt P48546); test: as above; details: read-out: Relative cAMP EC50, hGIPR;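 also: intracellular cAMP rise after 30 min at 37 °C read by HTRF against a standard curve, scaled between buffer alone (0%) and top control ligand concentration (100%), four-parameter fit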
# T2 sequence (P48546 22-466): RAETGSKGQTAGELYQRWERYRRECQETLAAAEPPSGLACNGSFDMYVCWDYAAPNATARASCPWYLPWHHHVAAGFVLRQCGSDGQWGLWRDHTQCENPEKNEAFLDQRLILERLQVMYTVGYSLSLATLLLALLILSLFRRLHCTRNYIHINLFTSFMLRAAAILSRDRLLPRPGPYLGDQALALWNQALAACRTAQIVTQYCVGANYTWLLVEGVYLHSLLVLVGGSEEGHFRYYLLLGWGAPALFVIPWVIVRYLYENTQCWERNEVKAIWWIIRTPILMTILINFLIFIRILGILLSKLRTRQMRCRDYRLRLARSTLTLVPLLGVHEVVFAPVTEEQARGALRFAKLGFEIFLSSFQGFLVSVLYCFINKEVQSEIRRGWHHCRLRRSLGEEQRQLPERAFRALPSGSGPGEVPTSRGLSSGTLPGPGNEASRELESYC
# hGLP-1R [3] = molecular target: T1, hGLP-1R; test: Functional cAMP activity in the presence of 1% HSA; details: read-out: cAMP Rel EC50, hGLP-1R
# human GcgR = human GcgR (Homo sapiens, UniProt P47871); test: Functional cAMP activity in the presence of 1% HSA; details: read-out: cAMP Rel EC50, hGcgR
# hGIPR [4] = molecular target: T2, hGIPR; test: Functional cAMP activity in the presence of 1% HSA; details: read-out: cAMP Rel EC50, hGIPR
# human GcgR, sequence (P47871 26-477): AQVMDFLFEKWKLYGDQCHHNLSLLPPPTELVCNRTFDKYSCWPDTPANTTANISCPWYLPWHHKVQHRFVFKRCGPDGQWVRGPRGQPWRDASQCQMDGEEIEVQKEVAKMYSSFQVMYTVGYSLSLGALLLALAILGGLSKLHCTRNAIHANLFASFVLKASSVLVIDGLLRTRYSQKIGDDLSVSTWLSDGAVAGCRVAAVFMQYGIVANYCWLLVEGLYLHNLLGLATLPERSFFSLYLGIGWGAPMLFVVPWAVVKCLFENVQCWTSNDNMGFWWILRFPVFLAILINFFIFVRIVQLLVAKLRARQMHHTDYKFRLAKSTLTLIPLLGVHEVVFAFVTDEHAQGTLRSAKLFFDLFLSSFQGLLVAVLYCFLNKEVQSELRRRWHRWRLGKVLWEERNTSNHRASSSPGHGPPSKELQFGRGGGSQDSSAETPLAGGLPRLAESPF
# hGcgR, sequence (P47871 26-477): as above
# T1 sequence (P43220 24-463): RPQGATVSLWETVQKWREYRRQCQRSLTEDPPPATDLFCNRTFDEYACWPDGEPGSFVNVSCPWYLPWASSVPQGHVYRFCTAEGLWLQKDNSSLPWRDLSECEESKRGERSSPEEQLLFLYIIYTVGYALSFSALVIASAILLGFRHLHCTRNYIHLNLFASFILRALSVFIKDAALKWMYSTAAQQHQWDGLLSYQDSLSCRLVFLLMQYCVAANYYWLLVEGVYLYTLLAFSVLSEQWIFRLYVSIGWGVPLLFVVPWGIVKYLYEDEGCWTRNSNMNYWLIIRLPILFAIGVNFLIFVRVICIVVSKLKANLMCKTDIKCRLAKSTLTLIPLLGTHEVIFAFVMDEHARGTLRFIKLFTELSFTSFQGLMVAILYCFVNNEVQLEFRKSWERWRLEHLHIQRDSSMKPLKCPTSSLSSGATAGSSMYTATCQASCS
SMILES,EC50 (hGcgR) [nM],EC50 (hGLP-1R [1]) [nM],EC50 (hGIPR [2]) [nM],EC50 (hGLP-1R [3]) [nM],EC50 (human GcgR) [nM],EC50 (hGIPR [4]) [nM]
CC[C@H](C)[C@H](NC(=O)[C@H](Cc1ccccc1)NC(=O)[C@H](C)NC(=O)C(C)(C)NC(=O)[C@H](CCC(N)=O)NC(=O)[C@H](C)NC(=O)[C@H](CCCCNC(=O)COCCOCCNC(=O)CC[C@H](NC(=O)CCCCCCCCCCCCCCCCC(=O)O)C(=O)O)NC(=O)[C@H](CCCCN)NC(=O)[C@H](CC(=O)O)NC(=O)[C@H](CC(C)C)NC(=O)[C@H](CC(C)C)NC(=O)[C@H](CO)NC(=O)[C@H](CO)NC(=O)[C@H](Cc1ccc(O)cc1)NC(=O)[C@H](CC(=O)O)NC(=O)[C@H](CO)NC(=O)[C@@H](NC(=O)[C@](C)(Cc1ccccc1F)NC(=O)[C@@H](NC(=O)CNC(=O)[C@H](CCC(N)=O)NC(=O)C(C)(C)NC(=O)[C@@H](N)Cc1ccc(O)cc1)[C@@H](C)O)[C@@H](C)O)C(=O)N[C@@H](CCC(=O)O)C(=O)N[C@@H](Cc1ccc(O)cc1)C(=O)N[C@@H](CC(C)C)C(=O)N[C@@H](CCC(=O)O)C(=O)N[C@@H](CCC(=O)O)C(=O)NCC(=O)NCC(=O)N1CCC[C@H]1C(=O)N[C@@H](CO)C(=O)N[C@@H](CO)C(=O)NCC(=O)N[C@@H](C)C(=O)N1CCC[C@H]1C(=O)N1CCC[C@H]1C(=O)N1CCC[C@H]1C(=O)N[C@@H](CO)C(N)=O [Example 409] (H-Y[Aib]QGT[αMePhe(2-F)]TSDYSSLLDKK([AEEA-γGlu-C18 diacid])AQ[Aib]AFIEYLEEGGPSSGAPPPS-NH2),7.92,0.484,0.363,41.7,1190,66.6
CC[C@H](C)[C@H](NC(=O)[C@H](Cc1ccccc1)NC(=O)[C@H](C)NC(=O)C(C)(C)NC(=O)[C@H](CCC(N)=O)NC(=O)[C@H](C)NC(=O)[C@H](CCCCNC(=O)CC[C@H](NC(=O)CC[C@H](NC(=O)CCCCCCCCCCCCCCCCC(=O)O)C(=O)O)C(=O)O)NC(=O)[C@H](CCCCN)NC(=O)[C@H](CC(=O)O)NC(=O)[C@H](CC(C)C)NC(=O)[C@H](CC(C)C)NC(=O)[C@@H](NC(=O)[C@H](CO)NC(=O)[C@H](Cc1ccncc1)NC(=O)[C@H](CC(=O)O)NC(=O)[C@H](CO)NC(=O)[C@@H](NC(=O)[C@](C)(Cc1ccccc1F)NC(=O)[C@@H](NC(=O)CNC(=O)[C@H](CCC(N)=O)NC(=O)C(C)(C)NC(=O)[C@@H](N)Cc1ccc(O)cc1)[C@@H](C)O)[C@@H](C)O)[C@@H](C)CC)C(=O)N[C@@H](CCC(=O)O)C(=O)N[C@@H](Cc1ccc(O)cc1)C(=O)N[C@@H](CC(C)C)C(=O)N[C@@H](CCC(=O)O)C(=O)N[C@@H](CCC(=O)O)C(=O)NCC(=O)NCC(=O)N1CCC[C@H]1C(=O)N[C@@H](CO)C(=O)N[C@@H](CO)C(=O)NCC(=O)N[C@@H](C)C(=O)N1CCC[C@H]1C(=O)N1CCC[C@H]1C(=O)N1CCC[C@H]1C(=O)N[C@@H](CO)C(N)=O [Example 413] (H-Y[Aib]QGT[αMePhe(2-F)]TSD[4Pal]SILLDKK([γGlu-γGlu-C18 diacid])AQ[Aib]AFIEYLEEGGPSSGAPPPS-NH2),6.3,0.564,0.0881,41.4,629,23.5
CC[C@H](C)[C@H](NC(=O)[C@H](Cc1ccccc1)NC(=O)[C@H](C)NC(=O)C(C)(C)NC(=O)[C@H](CCC(N)=O)NC(=O)[C@H](C)NC(=O)[C@H](CCCCNC(=O)CC[C@H](NC(=O)CC[C@H](NC(=O)CCCCCCCCCCCCCCCCC(=O)O)C(=O)O)C(=O)O)NC(=O)[C@H](CCCN)NC(=O)[C@H](CC(=O)O)NC(=O)[C@H](CC(C)C)NC(=O)[C@H](CC(C)C)NC(=O)[C@@H](NC(=O)[C@H](CO)NC(=O)[C@H](Cc1ccc(O)cc1)NC(=O)[C@H](CC(=O)O)NC(=O)[C@H](CO)NC(=O)[C@@H](NC(=O)[C@](C)(Cc1ccccc1F)NC(=O)[C@@H](NC(=O)CNC(=O)[C@H](CCC(N)=O)NC(=O)C(C)(C)NC(=O)[C@@H](N)Cc1ccc(O)cc1)[C@@H](C)O)[C@@H](C)O)[C@@H](C)CC)C(=O)N[C@@H](CCC(=O)O)C(=O)N[C@@H](Cc1ccc(O)cc1)C(=O)N[C@@H](CC(C)C)C(=O)N[C@@H](CCC(=O)O)C(=O)N[C@@H](CCC(=O)O)C(=O)NCC(=O)NCC(=O)N1CCC[C@H]1C(=O)N[C@@H](CO)C(=O)N[C@@H](CO)C(=O)NCC(=O)N[C@@H](C)C(=O)N1CCC[C@H]1C(=O)N1CCC[C@H]1C(=O)N1CCC[C@H]1C(=O)N[C@@H](CO)C(N)=O [Example 414] (H-Y[Aib]QGT[αMePhe(2-F)]TSDYSILLD[Orn]K([γGlu-γGlu-C18 diacid])AQ[Aib]AFIEYLEEGGPSSGAPPPS-NH2),4.56,0.176,0.0303,32.8,487,14.9
CC[C@H](C)[C@H](NC(=O)[C@H](CO)NC(=O)[C@H](Cc1ccc(O)cc1)NC(=O)[C@H](CC(=O)O)NC(=O)[C@H](CO)NC(=O)[C@@H](NC(=O)[C@](C)(Cc1ccccc1F)NC(=O)[C@@H](NC(=O)CNC(=O)[C@H](CCC(N)=O)NC(=O)C(C)(C)NC(=O)[C@@H](N)Cc1ccc(O)cc1)[C@@H](C)O)[C@@H](C)O)C(=O)N[C@@H](CC(C)C)C(=O)N[C@@H](CC(C)C)C(=O)N[C@@H](CC(=O)O)C(=O)N[C@@H](CCCCN)C(=O)N[C@@H](CCCCNC(=O)CC[C@H](NC(=O)CC[C@H](NC(=O)CCCCCCCCCCCCCCCCC(=O)O)C(=O)O)C(=O)O)C(=O)N[C@@H](C)C(=O)N[C@@H](CCC(N)=O)C(=O)NC(C)(C)C(=O)N[C@@H](CCCC(=O)O)C(=O)N[C@@H](Cc1ccccc1)C(=O)N[C@H](C(=O)N[C@@H](CCC(=O)O)C(=O)N[C@@H](Cc1ccc(O)cc1)C(=O)N[C@@H](CC(C)C)C(=O)N[C@@H](CCC(=O)O)C(=O)N[C@@H](CCC(=O)O)C(=O)NCC(=O)NCC(=O)N1CCC[C@H]1C(=O)N[C@@H](CO)C(=O)N[C@@H](CO)C(=O)NCC(=O)N[C@@H](C)C(=O)N1CCC[C@H]1C(=O)N1CCC[C@H]1C(=O)N1CCC[C@H]1C(=O)N[C@@H](CO)C(N)=O)[C@@H](C)CC [Example 415] (H-Y[Aib]QGT[αMePhe(2-F)]TSDYSILLDKK([γGlu-γGlu-C18 diacid])AQ[Aib][Aad]FIEYLEEGGPSSGAPPPS-NH2),8.64,0.38,0.0496,52.6,1090,28.9
CC[C@H](C)[C@H](NC(=O)[C@H](CO)NC(=O)[C@H](Cc1ccc(O)cc1)NC(=O)[C@H](CC(=O)O)NC(=O)[C@H](CO)NC(=O)[C@@H](NC(=O)[C@](C)(Cc1ccccc1F)NC(=O)[C@@H](NC(=O)CNC(=O)[C@H](CCC(N)=O)NC(=O)C(C)(C)NC(=O)[C@@H](N)Cc1ccc(O)cc1)[C@@H](C)O)[C@@H](C)O)C(=O)N[C@@H](CC(C)C)C(=O)N[C@@H](CC(C)C)C(=O)N[C@@H](CC(=O)O)C(=O)N[C@@H](CCCCN)C(=O)N[C@@H](CCCCNC(=O)CC[C@H](NC(=O)CC[C@H](NC(=O)CCCCCCCCCCCCCCCCC(=O)O)C(=O)O)C(=O)O)C(=O)N[C@@H](C)C(=O)N[C@@H](CCC(N)=O)C(=O)NC(C)(C)C(=O)N[C@@H](CC(N)=O)C(=O)N[C@@H](Cc1ccccc1)C(=O)N[C@H](C(=O)N[C@@H](CCC(=O)O)C(=O)N[C@@H](Cc1ccc(O)cc1)C(=O)N[C@@H](CC(C)C)C(=O)N[C@@H](CCC(=O)O)C(=O)N[C@@H](CCC(=O)O)C(=O)NCC(=O)NCC(=O)N1CCC[C@H]1C(=O)N[C@@H](CO)C(=O)N[C@@H](CO)C(=O)NCC(=O)N[C@@H](C)C(=O)N1CCC[C@H]1C(=O)N1CCC[C@H]1C(=O)N1CCC[C@H]1C(=O)N[C@@H](CO)C(N)=O)[C@@H](C)CC [Example 416] (H-Y[Aib]QGT[αMePhe(2-F)]TSDYSILLDKK([γGlu-γGlu-C18 diacid])AQ[Aib]NFIEYLEEGGPSSGAPPPS-NH2),2.08,0.331,0.0393,40.8,348,27.6
